Assay results as given in ChEMBL document CHEMBL1201862, “PubChem BioAssay data set” (2004).
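A five-concentration, 48-hour dose response in 96-well plates underlies each endpoint, interpolated linearly between surrounding concentrations. Here, GI50 denotes the concentration required for 50% inhibition of growth.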 Calls of active or inactive are those of the source. Cut-off read from the data, not from the text of the source: active = GI50 up to about 1.1 µM and inactive = higher.

Columns and labels:
Assay in all cases: growth of human tumour cells (NCI), 48 h
SF-539 = test system: SF-539
KM12 = test system: KM12
COLO 205 = test system: COLO 205
UACC-257 = test system: UACC-257
TK-10 = test system: TK-10
NCI-H226 = test system: NCI-H226
MDA-MB-231 = test system: MDA-MB-231
NCI/ADR-RES = test system: NCI/ADR-RES
SW-620 = test system: SW-620
MOLT-4 = test system: MOLT-4
SF-268 = test system: SF-268
CCRF-CEM = test system: CCRF-CEM
U-251 = test system: U-251
OVCAR-5 = test system: OVCAR-5
M14 = test system: M14
IGROV-1 = test system: IGROV-1
SNB-75 = test system: SNB-75
SK-MEL-2 = test system: SK-MEL-2

Cc1cc(S(=O)(=O)N=C2N(Cc3ccccc3)CCN2Cc2ccccc2)c(S)cc1Cl was tested, and the GI50 (SF-539) was > 100 µM (inactive), the GI50 (KM12) was > 100 µM (inactive) and the GI50 (COLO 205) was > 100 µM (inactive). For the same compound, the GI50 (UACC-257) was > 100 µM (inactive), the GI50 (TK-10) was > 100 µM (inactive) and the GI50 (NCI-H226) was 85.5 µM (inactive). The GI50 (MDA-MB-231) was > 100 µM (inactive), the GI50 (NCI/ADR-RES) was > 100 µM (inactive) and the GI50 (SW-620) was > 100 µM (inactive). The GI50 (MOLT-4) was > 100 µM (inactive), the GI50 (SF-268) was 36 µM (inactive) and the GI50 (CCRF-CEM) was > 100 µM (inactive). The GI50 (U-251) was 54.8 µM (inactive), the GI50 (OVCAR-5) was > 100 µM (inactive) and the GI50 (M14) was > 100 µM (inactive). The GI50 (IGROV-1) was > 100 µM (inactive) and the GI50 (SNB-75) was 69.8 µM (inactive).
With CN1CCc2c(sc3nc(Nc4ccccc4)n(N)c(=O)c23)C1 the GI50 (SF-539) was > 100 µM (inactive), the GI50 (KM12) was > 100 µM (inactive) and the GI50 (COLO 205) was 42.8 µM (inactive). For the same compound, the GI50 (UACC-257) was 60.4 µM (inactive), the GI50 (TK-10) was > 100 µM (inactive) and the GI50 (NCI-H226) was > 100 µM (inactive). The GI50 (MDA-MB-231) was > 100 µM (inactive), the GI50 (NCI/ADR-RES) was > 100 µM (inactive) and the GI50 (MOLT-4) was 65 µM (inactive). The GI50 (SF-268) was > 100 µM (inactive), the GI50 (CCRF-CEM) was 59.2 µM (inactive) and the GI50 (OVCAR-5) was > 100 µM (inactive). For the same compound, the GI50 (M14) was 24.1 µM (inactive), the GI50 (IGROV-1) was > 100 µM (inactive) and the GI50 (SK-MEL-2) was > 100 µM (inactive).
For O=[N+]([O-])/C=C1\COCc2cc3c(cc21)OCO3, the GI50 (SF-539) was 26.4 µM (inactive), the GI50 (KM12) was 15.1 µM (inactive) and the GI50 (COLO 205) was 23.1 µM (inactive). The GI50 (UACC-257) was 19.7 µM (inactive), the GI50 (TK-10) was 22.8 µM (inactive) and the GI50 (NCI-H226) was 34 µM (inactive). For the same compound, the GI50 (MDA-MB-231) was 14.4 µM (inactive), the GI50 (NCI/ADR-RES) was 18 µM (inactive) and the GI50 (SW-620) was 22.1 µM (inactive). For the same compound, the GI50 (MOLT-4) was 24.5 µM (inactive), the GI50 (SF-268) was 27.2 µM (inactive) and the GI50 (CCRF-CEM) was 10.6 µM (inactive). The GI50 (U-251) was 18.6 µM (inactive), the GI50 (OVCAR-5) was 19.9 µM (inactive) and the GI50 (M14) was 13.4 µM (inactive). For the same compound, the GI50 (IGROV-1) was 35.6 µM (inactive) and the GI50 (SNB-75) was 16.5 µM (inactive).
In the case of COc1ccc(/C=C2\C[C@H]3[C@@H]4CC=C5C[C@@H](OC(C)=O)CC[C@]5(C)[C@H]4CC[C@]3(C)C2=O)cc1OC, the GI50 (SF-539) is reported as > 100 µM (inactive), the GI50 (KM12) is reported as 0.971 µM (active) and the GI50 (COLO 205) is reported as 24.3 µM (inactive). The GI50 (UACC-257) was 19.8 µM (inactive), the GI50 (NCI-H226) was 48.2 µM (inactive) and the GI50 (NCI/ADR-RES) was 80.9 µM (inactive). The GI50 (SW-620) was > 100 µM (inactive), the GI50 (MOLT-4) was 5.9 µM (inactive) and the GI50 (SF-268) was 86.7 µM (inactive). For the same compound, the GI50 (CCRF-CEM) was 37 µM (inactive), the GI50 (OVCAR-5) was 41 µM (inactive) and the GI50 (M14) was 66.4 µM (inactive). The GI50 (IGROV-1) was > 100 µM (inactive), the GI50 (SNB-75) was > 100 µM (inactive) and the GI50 (SK-MEL-2) was 31.1 µM (inactive).
In the case of Nc1ccc2nc3ccc(N)cc3[n+](-c3ccccc3)c2c1, the GI50 (SF-539) is reported as 60.7 µM (inactive), the GI50 (KM12) is reported as 36 µM (inactive) and the GI50 (COLO 205) is reported as 4.55 µM (inactive). For the same compound, the GI50 (UACC-257) was 9.27 µM (inactive), the GI50 (TK-10) was > 100 µM (inactive) and the GI50 (MDA-MB-231) was 63.8 µM (inactive). For the same compound, the GI50 (NCI/ADR-RES) was 14.9 µM (inactive), the GI50 (SW-620) was 37.3 µM (inactive) and the GI50 (SF-268) was 29 µM (inactive). The GI50 (CCRF-CEM) was > 100 µM (inactive), the GI50 (U-251) was 38.5 µM (inactive) and the GI50 (OVCAR-5) was 29.9 µM (inactive). The GI50 (M14) was 30.2 µM (inactive), the GI50 (IGROV-1) was 37.3 µM (inactive) and the GI50 (SNB-75) was 42.1 µM (inactive). The GI50 (SK-MEL-2) was 34.5 µM (inactive).
CCN1C/C(=C\c2ccc(Cl)cc2)c2[nH]c(=O)c(C#N)c(-c3ccc(Cl)cc3)c2C1 was tested, and the GI50 (SF-539) was > 100 µM (inactive), the GI50 (KM12) was > 100 µM (inactive) and the GI50 (COLO 205) was > 100 µM (inactive). The GI50 (UACC-257) was > 100 µM (inactive), the GI50 (TK-10) was > 100 µM (inactive) and the GI50 (NCI-H226) was > 100 µM (inactive). For the same compound, the GI50 (MDA-MB-231) was > 100 µM (inactive), the GI50 (NCI/ADR-RES) was > 100 µM (inactive) and the GI50 (SW-620) was > 100 µM (inactive). The GI50 (MOLT-4) was 21.2 µM (inactive), the GI50 (SF-268) was > 100 µM (inactive) and the GI50 (CCRF-CEM) was 71.6 µM (inactive). For the same compound, the GI50 (U-251) was > 100 µM (inactive), the GI50 (OVCAR-5) was > 100 µM (inactive) and the GI50 (M14) was > 100 µM (inactive). For the same compound, the GI50 (IGROV-1) was > 100 µM (inactive) and the GI50 (SK-MEL-2) was > 100 µM (inactive).
O=c1ccn(C2OC(CO)C(P(=O)(O)O)C2O)c(=O)[nH]1 (stereo unspecified) was tested, and the GI50 (SF-539) was > 100 µM (inactive), the GI50 (KM12) was > 100 µM (inactive) and the GI50 (UACC-257) was > 100 µM (inactive). The GI50 (TK-10) was > 100 µM (inactive), the GI50 (NCI-H226) was > 100 µM (inactive) and the GI50 (MDA-MB-231) was > 100 µM (inactive). For the same compound, the GI50 (SW-620) was > 100 µM (inactive), the GI50 (MOLT-4) was > 100 µM (inactive) and the GI50 (SF-268) was > 100 µM (inactive). For the same compound, the GI50 (CCRF-CEM) was > 100 µM (inactive), the GI50 (U-251) was > 100 µM (inactive) and the GI50 (OVCAR-5) was > 100 µM (inactive). The GI50 (M14) was > 100 µM (inactive), the GI50 (IGROV-1) was > 100 µM (inactive) and the GI50 (SNB-75) was > 100 µM (inactive). The GI50 (SK-MEL-2) was > 100 µM (inactive).
With O=C1CC(C(=O)N2CCCCC2)n2c(=O)n(-c3ccccc3)c(=O)n2C1 (stereo unspecified) the GI50 (SF-539) was > 100 µM (inactive), the GI50 (KM12) was > 100 µM (inactive) and the GI50 (COLO 205) was > 100 µM (inactive). For the same compound, the GI50 (UACC-257) was > 100 µM (inactive), the GI50 (TK-10) was > 100 µM (inactive) and the GI50 (NCI-H226) was > 100 µM (inactive). For the same compound, the GI50 (MDA-MB-231) was > 100 µM (inactive), the GI50 (NCI/ADR-RES) was > 100 µM (inactive) and the GI50 (SF-268) was > 100 µM (inactive). The GI50 (OVCAR-5) was > 100 µM (inactive), the GI50 (M14) was > 100 µM (inactive) and the GI50 (IGROV-1) was > 100 µM (inactive). The GI50 (SNB-75) was > 100 µM (inactive).
